System: WM3629 cells (BRAF D594G/NRAS G12D)
Experiment: Cellular phospho-ERK inhibition assay in WM3629 cells
Type: cell-based
Settings: 1 hour treatment, read-out: IC50 WM3629 pERK
Experimental: The compounds of Example 13, Example 14 and Example 126 were evaluated in a phospho-ERK assay in two mutant BRAF Class III cell lines: NCI-H1666 (BRAF^G466V) and WM3629 cells (BRAF^D594G/NRAS^G12D). NCI-H1666 cells were obtained from the American Type Culture Collection (ATCC, Rockville, MD) and WM3629 cells were obtained from Rockland Immunochemicals (Limerick, PA). Cells were maintained in RPMI growth medium containing 10% FBS.
Cells were harvested according to standard protocols, counted, and plated onto flat-bottom, 96-well tissue culture plates (Costar #3599) at 2.5×10^4 cells/well in 100 μL/well of growth medium containing 10% FBS. After an overnight incubation at 37° C. with 5% CO2 cells were treated for 1 hour at 37° C., 5% CO2 with inhibitors prepared as a 9-point, 1:3.33 fold dilution series with final compound concentrations ranging from 66 pM-10 μM and a constant DMSO concentration of 0.25%. Control wells contained either 0.25% DMSO alone (uninhibited control) or 10 μM binimetinib (complete inhibition control). The levels of phosphorylated ERK were determined using an In Cell Western protocol: following compound incubation, growth medium was discarded, and cells were fixed with 0.4% formaldehyde in PBS for 20 minutes at room temperature. Cells were permeabilized with 100% methanol for 10 minutes at room temperature. Plates were washed with PBS containing 0.05% Tween-20 and blocked for 1 hour at room temperature with LI-COR Blocking Buffer (LI-COR Biosciences; Cat. #927-40000). Plates were then incubated for 2 hours at room temperature with 50 μL of a 1:400 dilution of anti-phospho-ERK1/2 (Thr202/Tyr204) (Cell Signaling; Cat. #9101) and a 1:1000 dilution of anti-GAPDH (Millipore; Cat. #MAB374) in LI-COR blocking buffer containing 0.05% Tween-20. […] Plates were analyzed by reading on an Odyssey CLx infrared scanner. […]
[formula] • Where: • Xmax d Average Uninhibited Controls • Xmin Average Complete Inhibition Controls • IC50 values were then calculated using a 4-parameter fit in XLfit software and are shown in Table A2.

| IC50 [nM] | SMILES |
| --- | --- |
| 0.7 | Cn1cnc2ccc(Nc3c(F)ccc(NS(=O)(=O)N4CC5CC4C5)c3Cl)c(F)c2c1=O [Example 13, N-(2-chloro-4-fluoro-3-((5-fluoro-3-methyl-4-oxo-3,4-dihydroquinazolin-6-yl)amino)phenyl)-2-azabicyclo[2.1.1]hexane-2-sulfonamide] |
| 0.2 | Cn1cnc2ccc(Nc3c(F)ccc(NS(=O)(=O)N4CC[C@@H](F)C4)c3Cl)c(F)c2c1=O [Example 14, (R)-N-(2-chloro-4-fluoro-3-((5-fluoro-3-methyl-4-oxo-3,4-dihydroquinazolin-6-yl)amino)phenyl)-3-fluoropyrrolidine-1-sulfonamide] |

From patent US12303509B2, “Compounds for the treatment of BRAF-associated diseases and disorders” (Pfizer Inc., priority 2020, dated 2025)
